Results from ChEMBL document CHEMBL1148105, “Bioactive metabolites from a marine-derived strain of the fungus Emericella variecolor” (2002).
Values after ≈ are worked out from the molar mass of the structure shown.

Columns and labels:
Assay type in all cases: functional
Enterococcus faecalis = test: Antimicrobial activity against Enterococcus faecalis
Bacillus subtilis = test: Antimicrobial activity against Bacillus subtilis
Staphylococcus aureus = test: Antimicrobial activity against Staphylococcus aureus
Escherichia coli = test: Antimicrobial activity against Escherichia coli

- MIC (Enterococcus faecalis): 50 µg/mL (≈ 324 µM)
- MIC (Bacillus subtilis): 50 µg/mL (≈ 324 µM)
- MIC (Staphylococcus aureus): 50 µg/mL (≈ 324 µM)
- MIC (Escherichia coli): 50 µg/mL (≈ 324 µM)
Compound: C/C=C/C1=CC(=O)[C@@H](O)[C@@H]1O [TERREIN]
